Biological target: T1, Dimer of Gag-Pol polyprotein [489-587] (Human immunodeficiency virus 1, UniProt P12497)
T1 construct: 489-587
Assay: Protease Inhibition Assay
Method: For determination of IC50 values, HIV-1 protease was added to assay buffer containing inhibitor and the substrate (H-His-Lys-Ala-Arg-Val-Leu- (p-NO2) Phe-Glu-Ala-norleucine-Ser-NH2). The Leu- (p-NO2) Phe bond of the substrate was cleaved by the enzyme, and the substrate and products were separated by reversed-phase HPLC. Absorbance was measured at 220 nm, peak areas were determined, and percentage conversion to product was calculated.

SMILES | IC50 | IC50 (pH 6.2, 37 °C)
COCOCCOc1cc(C(C)(C)C)c(SC2C(=O)CC(C)(CCc3ccc(O)cc3)OC2=O)cc1C (stereo not given) [3-({2-tert-butyl-4-[2-(methoxymethoxy)ethoxy]-5-methylphenyl}sulfanyl)-4-hydroxy-6-[2-(4-hydroxyphenyl)ethyl]-6-methyl-5,6-dihydro-2H-pyran-2-one] | 20 nM | –
CCCCCC1(CCc2ccc(O)cc2)CC(=O)C(Sc2cc(C)c(OCCO)cc2C(C)(C)C)C(=O)O1 (stereo not given) [3-{[2-tert-butyl-4-(2-hydroxyethoxy)-5-methylphenyl]sulfanyl}-4-hydroxy-6-[2-(4-hydroxyphenyl)ethyl]-6-pentyl-5,6-dihydro-2H-pyran-2-one] | 2.9 nM | –
Cc1cc(SC2C(=O)CC(CCc3ccccc3)(C(C)C)OC2=O)c(C(C)(C)C)cc1CO (stereo not given) [3-{[2-tert-butyl-4-(hydroxymethyl)-5-methylphenyl]sulfanyl}-4-hydroxy-6-(2-phenylethyl)-6-(propan-2-yl)-5,6-dihydro-2H-pyran-2-one] | 2.2 nM | –
Cc1ccc(C(C)(C)C)c(SC2C(=O)CC(CCc3ccc(O)cc3)(C3CCCC3)OC2=O)c1 (stereo not given) [(3-(2-tert-Butyl-5-methyl-phenylsulfanyl)-4-hydroxy-6-[2-(4-hydroxy-phenyl)-ethyl]-6-cyclopentyl-5,6-dihydro-pyran-2-one] | – | 7.2 nM
Cc1ccc(C(C)(C)C)c(SC2C(=O)CC(CCc3ccc(O)cc3)OC2=O)c1 (stereo not given) [3-[(2-tert-butyl-5-methylphenyl)sulfanyl]-4-hydroxy-6-[2-(4-hydroxyphenyl)ethyl]-5,6-dihydro-2H-pyran-2-one] | – | 338 nM
